# In patent US20210085699A1, “COMBINATION THERAPIES FOR TREATING CANCERS” (priority 2018, published 2021):
# What was measured:
# CCRF-SB cells = assay: CCRF-SB xenograft in NRG mice, tumor burden by human CD19+ cells; type: in vivo; settings: 200 μL of 600 mM 2DG I.P. three times per week for two weeks, vs glucose
# Experimental: (§1) To test that hypothesis, the two cell lines were tested for 2DG sensitivity in vivo: immunodeficient NOD.Cg-Rag1^tm1MomIl2rg^tm1Wjl/SzJ (NRG™) mice were xenografted with either MEC1 or CCRF-SB cells, and the mice were then treated with 200 μL of 600 mM 2DG or glucose I.P. three times per week for two weeks. Both MEC1 and CCRF-SB cells migrate to the spleen and bone marrow, and since these mice […] CD19+ B-cells, the tumor burden can be measured terminally in these organs by anti-human CD19 staining via flow cytometry after euthanasia at the end of the treatment period.
# (§2) Human cancer cell lines were xenografted into NRG mice in the following way: Cells grown in flasks were given fresh media the night before xenograftment and seeded at 10^6 cells per mL. The next day, the cells were washed twice with DPBS without calcium or magnesium and resuspended to 1-2×10^8 cells per mL of DPBS at room temperature and immediately injected via tail vein at 100 μL per mouse. The cells were given 7-10 days to fully xenograft, after which tumor load in the blood was assessed via flow cytometry (FACSCaliber II) for human CD19+ cells (Antibody cat no. 555413, BD Parmingen). […] Upon euthanasia, the spleen and the bone marrow were harvested and stained for human CD19, and the cells were measured by flow cytometry on the FACSCaliber II. […]
# MEC1 cells [1] = assay: MEC1 xenograft in NRG mice, tumor burden by human CD19+ cells (flow cytometry); type: in vivo
# Experimental: as §1
# Because DIDS was effective in reducing numbers of MEC1 B-cells ex vivo, its effectiveness was tested in vivo. […] MEC1 cells were xenografted into immunodeficient NRG™ mice for two weeks, and mice were then treated either with DIDS at 50 mg/kg or with a 0.1 M potassium bicarbonate/PBS vehicle, once per week for an additional two weeks. NRG™ mice were used because they were deficient in CD19 cells, allowing quantification of MEC1 B-cells by staining spleen cells for human CD19, as the spleen is a homing organ for MEC1 B-cells, all of which are positive for CD19.
# Mice were treated I.P. three times weekly for two weeks. 1) mice were dosed I.P. with 10 mg/kg DIDS, a fifth of the dose required to elicit an effect in vivo (FIG. 4D); 2) mice were treated I.P. with 220 mg/kg of 2DG or glucose; a third of the dose of 2DG required for an effect (FIG. 3C); 3) mice were treated with both DIDS and 2DG, at the same doses used in the first two groups; 4) as a positive control, mice were treated with fludarabine, a compound frequently used to treat CLL, at 35 mg/kg, a dose commonly used to elicit an effect; and 5) as a negative control, mice were treated with vehicle consisting of glucose in PBS (41). Following the 2-week treatment period, bone marrow and spleens were assessed for tumor burden, by determining the percentages of human CD19-positive cells via flow cytometry (FIG. 5C).
# Human cancer cell lines were xenografted into NRG mice in the following way: Cells grown in flasks were given fresh media the night before xenograftment and seeded at 10^6 cells per mL. The next day, the cells were washed twice with DPBS without calcium or magnesium and resuspended to 1-2×10^8 cells per mL of DPBS at room temperature and immediately injected via tail vein at 100 μL per mouse. The cells were given 7-10 days to fully xenograft, after which tumor load in the blood was assessed via flow cytometry (FACSCaliber II) for human CD19+ cells (Antibody cat no. 555413, BD Parmingen). Mice with similar tumor loads were assigned to different treatment groups to decrease bias and ensure more even tumor load across treatments. Mice were treated as described in the Results section for two weeks unless otherwise indicated. Upon euthanasia, the spleen and the bone marrow were harvested and stained for human CD19, and the cells were measured by flow cytometry on the FACSCaliber II. Analysis of the flow data was done by Flowjo version 8.8.7 (BD Pharmingen).
# Xenografts were done as follows: NOD. Rag1−/− IL-2rg−/− (NRG) mice obtained from the Jackson Laboratory were xenografted for one to two weeks with Non Hogdkin's Leukemia CCRFSB, Chronic lymphocytic leukemia MEC1 cells or MEC1 cells carrying the luciferase gene (MEC1_LUC). Mice were then randomly assigned to treatment or vehicle cohort, and treated for two weeks.
# TM00921 = assay: PDX lung carcinoma TM00921 xenografted in NSG mice, 2DG vs glucose; type: in vivo, human; settings: 200 μL of 600 mM 2DG I.P. three times weekly, 4 weeks, glycolysis-dependent PDX
# Description: (§3) The effects of 2DG in human lung carcinoma PDX (patient-derived xenograft) models were eventuated. While it is understood that 2DG primarily affects glycolysis, studies have shown that 2DG can interfere with other systems, such as the cell cycle, independently of its effects on metabolism (8, 32, 33). Changes in the cell cycle would affect the proliferation of cancer cells, and would ultimately influence tumor growth. To test whether 2DG affects glycolysis independently of proliferation, two PDX human lung carcinomas (TM00244 and TM00921) with similar growth kinetics (FIG. 2A) but differing in the use of glycolytic pathways (Table 1) were tested.
# (§4) Tumors from these two carcinomas were xenografted into immunodeficient NOD.Scid.IL2R gamma null (NSG™) mice, and, after tumors of a measurable size (>50 mm^3) were observed, mice of each model were treated with 200 μL of either 600 mM 2DG or glucose three times weekly via I.P. injection.
# (§5) Patient-derived xenograft (PDX) tumors were obtained from the JAX PDX Resource. Tumor fragments were minced separately and xenografted subcutaneously in an NSG mouse to establish P1. Upon growth of the tumor fragment, the tumor was harvested, minced, and xenografted in multiple mice to establish P2 mice. All experiments were conducted on P2 or higher mice that arose from engraftment from one of multiple tumor fragments.
# [2] = system: spontaneously arising lymphomas; assay: 2DG in drinking water, spontaneous lymphomas of SJL.CD8a−/− mice; type: in vivo, mouse
# Description: To test the extent to which inhibition of glycolysis by 2DG alleviated these spontaneously arising lymphomas, a cohort of SJL.CD8a−/− female mice were aged to […] of age and were monitored for signs of lymphoma development. Visible growth was most evident in cervical lymph nodes and in some cases in spleens (indicated by arrows, FIG. 1A). Once tumors were sufficiently large to palpate, mice were placed on water with 6 g/L of dissolved 2DG provided ad libitum and monitored weekly for tumor reduction. […] Photographs of the tumors were taken weekly to document disease regression, and the time points, in weeks, at which the tumors visibly shrank or, later, reemerged, were recorded.
# Female SJL.CD8a−/− mice were obtained from the Jackson Laboratory. Mice were aged and checked weekly for splenic or lymphatic tumors. […] Tumors were monitored and photographed weekly for signs of disease regression or progression.
# SJL.CD8a−/− female mice were aged and monitored for signs of tumor development weekly after reaching 6 months of age. Tumors were found on mice in between 7 to 12 months of age. Once tumors had reached a clearly visible size, the mice were given water with 6 g/L of dissolved 2DG provided ad libitum. This concentration of 2DG in the water supplied the mice with a daily dose of approximately 960 mg/kg of 2DG. Mice were monitored weekly to determine changes in tumor mass. Photographs of the tumors were taken weekly to gauge whether the tumor was shrinking, expanding, or maintaining their size and to provide an estimate of the overall health of the mice. Treatments lasted for 11 weeks or until the tumors returned and mice became too sick to continue in the study. The treatment of one mouse was carried out to week 16 to determine what, if any, side effects would occur with prolonged 2DG exposure. […] Dates on which tumor shrinkage was observed, as well as dates on which tumor reemergence was observed, were recorded.
# thymic lymphomas = assay: 2DG I.P. in Trp53−/− mouse model of thymic lymphoma; type: in vivo
# Experimental: Next, a more homogeneous and acute spontaneously arising lymphoma was tested. In addition, the extent to which 2DG could affect a purely T-cell lymphoma was tested. To meet all of these criteria, a classic mouse model of T-cell cancer, the p53-deficient mouse (31) was used. […] To test the effect of 2DG on these thymic lymphomas, […].
# MEC1 cells [3] = assay: Ex vivo growth/survival of MEC1 cells; type: cell-based, human
# TM00244 = assay: PDX lung carcinoma TM00244 xenografted in NSG mice, 2DG vs glucose; type: in vivo, human; settings: 200 μL of 600 mM 2DG I.P. three times weekly, 4 weeks, glycolysis-independent PDX
# Description: as §3, §4, §5
# [4] = system: human CLL cells from patients; settings: patient cells ex vivo; reference (17); cited from earlier work
# [5] = system: AID knock-out MEC1 (AKO) cells; assay: Ex vivo growth of AID knock-out MEC1 (AKO) cells; type: cell-based, human; settings: DIDS vs vehicle
# Experimental: (§6) Theoretically, this would result in a truncated, non-functional AID, which was termed AID knock-out MEC1 (AKO) cells. To test the dependence of DIDS on AID, AKO cells were treated with DIDS and compared their growth with that of parental MEC1 cells. […] To test whether AID sufficiency was required for DIDS efficacy in vivo, AKO and parental cells were xenografted in NRG™ mice, and mice were treated with 50 mg/kg of DIDS for two weeks. […] Thus, the therapeutic effect of DIDS in MEC1 xenografts depended on AID.
# AID knock out (AKO) MEC1 cell lines were developed by targeting Exon 2 of AID with the following guide RNAs: CTTGATGAACCGGAGGAAG (SEQ ID NO: 1), GTCCGCTGGGCTAAGGGTC (SEQ ID NO: 2), GTGCTACATCCTTTTCAC (SEQ ID NO: 3). These guides were cloned into the Cas9-EGFP vector, pX330 (Addgene, Cat. no. 66582). These vectors were nucleofected into MEC1 cells using Amaxa Cell Line Nucleofector Kit V using program X-001, and according to manufacturer's instructions (Lonza, Cat. no. VACA-1003). Nucleofected cells were sorted for GFP positivity and cloned by limited dilution to generate AKO cell lines. Two independent AKO cell lines (14-1 and 14-3) were confirmed for AID nullizygosity using both genomic and transcript PCRs.
# [6] = system: AID knock-out MEC1 (AKO) cells; assay: AKO cell xenograft in NRG mice treated with DIDS; type: in vivo, human; settings: DIDS 50 mg/kg for two weeks
# Experimental: as §6, §2
# [7] = system: splenocytes, live white blood cells (CD45+ Ter119-PI−); assay: In vivo DIDS treatment of AID-null mice followed by ex vivo ionizing radiation of splenocytes; set-up: species or system mouse
# Experimental: Whether DIDS could block repair of AID-independent double-strand breaks (frank or single-strand staggered double-strand breaks) in vivo was determined. A common way to generate double-strand breaks is via ionizing radiation (1, 38, 39). For this, AID-null mice were treated with different concentrations of DIDS (0, 5, or 10 mg/kg) for eight hours, and then harvested splenocytes and treated them with different doses of IR (0, 1, 5, 10 Gy). Eighteen hours after IR, the numbers of live white blood cells (CD45+ Ter119-PI−) were measured by flow cytometry.
# [8] = system: AID-positive neoplastic cell lines; settings: tissue culture; reference (17); cited from earlier work
# [9] = 200 μL of 600 mM 2DG I.P. three times per week for two weeks, vs glucose
# [10] = one mouse, 2DG 6 g/L in water carried out to week 16
structure (smiles),measurement,setting,value
"OCC1O[C@H](O)C[C@@H](O)[C@@H]1O (mixture of isomers) [2DG, 2-deoxy-D-glucose]",tumor burden (human CD19+ cells) in spleens or bone marrow,CCRF-SB cells,no significant response to 2DG
same,tumor burden (% hCD19+) in bone marrow,MEC1 cells [1]; 2DG alone 220 mg/kg I.P. three times weekly for two weeks,elicited as much effect as the combination treatment
same,tumor burden (human CD19+ cells) in bone marrow,MEC1 cells [1]; [9],significant reductions in numbers
same,"tumor burden (human CD19+ cells) in spleen, sensitivity to 2DG",MEC1 cells [1]; [9],those in the spleen did not
same,tumor volume,TM00921,significantly smaller tumor volume
same,"adverse side effects by gross observation (weight loss, lethargy, lack of grooming)","[2]; 2DG 6 g/L in drinking water, at any time during treatment",no adverse side effects of this treatment were observed
same,time within which tumors returned,"[2]; 2DG 6 g/L in drinking water, despite continuation of treatment",5-11 weeks
same,mice of the six responders in which tumors returned,"[2]; 2DG 6 g/L in drinking water, treatment continued",four
same,treatment time at which tumor regression was evident,"[2]; 2DG 6 g/L in drinking water, N=7",two to three
same,appearance of greatly enlarged spleen (representative mouse),"[2]; FIG. 1A legend, 2DG 6 g/L in drinking water",returned to normal appearance after two weeks of treatment
same,fraction of mice with tumor resurgence,"[2]; FIG. 1B legend, after 5-11 weeks of 2DG treatment, N=7",approximately ¾
same,adverse effects with prolonged 2DG exposure,[2]; [10],no adverse effects were noted
same,tumor return under prolonged treatment,[2]; [10],This tumor never returned
same,duration of inactivity upon injection,thymic lymphomas; 2DG 670 mg/kg I.P.,10 to 60 min
same,protection from developing neoplasms (survival curve),"thymic lymphomas; 2DG 670 mg/kg I.P. three times weekly from 14 weeks of age for 10 weeks, vs glucose",significantly protected from developing neoplasms
same,weight gain,"thymic lymphomas; 2DG 670 mg/kg I.P. three times weekly, vs glucose-treated mice","lower weight gain compared to glucose-treated mice, although the difference did not achieve significance"
same,effect on MEC1 cell numbers,"MEC1 cells [3]; 2DG 0.2 mM alone, 48 hours",does not have an effect on its own
same,tumor size,TM00244,no difference in tumor size
"O=S(=O)(O)c1cc(N=C=S)ccc1/C=C/c1ccc(N=C=S)cc1S(=O)(=O)O [DIDS, 4,4′-Diisothiocyano-2,2′-stilbenedisulfonic acid]",targeting of AID-positive vs AID-negative human CLL cells,[4],"targeted AID-positive, but not AID-negative, human CLL cells"
same,mice showing significant (p=0.001) reduction in number of MEC1 cells in the spleen,"MEC1 cells [1]; DIDS 50 mg/kg once per week for two weeks, vs vehicle",10/11
same,"tumor burden in vivo (luciferase imaging, flow cytometry of bone marrow and spleen)","MEC1 cells [1]; FIG. 10 legend, MEC1 or MEC1 LUC, DIDS 50 mg/kg for two weeks",a high dose of DIDS is required to reduce tumor burden in vivo
same,growth rate of AKO cells,[5],grew at a similar rate regardless of whether the cells were treated with vehicle or DIDS
same,"spleen weights, AKO vs parental MEC1",[6],AKO cells were more resistant to DIDS
same,"tumor burden by percentages of human CD19 cells, AKO vs parental MEC1",[6],AKO cells were more resistant to DIDS
same,survival of cells after IR,"[7]; DIDS 0, 5 or 10 mg/kg for eight hours in AID-null mice, IR 0, 1, 5, 10 Gy ex vivo, eighteen hours after IR","in the presence of DIDS, the effect is significantly greater"
same,"cell ablation at 10 Gy, normalized to 0 mg/Kg DIDS","[7]; IR 10 Gy, DIDS 5 or 10 mg/kg",even a tenth of the dose of DIDS can synergistically enhance the severity of cell ablation
same,cytotoxic effect on MEC1 B-cells,"MEC1 cells [3]; DIDS 0.05 mM, 5 days, 2×10^5 cells",Cytotoxic effects of DIDS on MEC1 B-cells were seen as early as 5 days
same,cytotoxic effect on MEC1 B-cells,"MEC1 cells [3]; DIDS 0.1 and 0.2 mM, after 5 days",significant effect was observed
same,cell numbers,"MEC1 cells [3]; DIDS alone, titrated, day 2",reduction of cell numbers as the concentration of DIDS was increased
same,targeting of AID-positive neoplastic cell lines,[8],could specifically target AID-positive neoplastic cell lines in tissue culture
